Patent US10919885B2, “Compounds and uses thereof” (Yumanity Therapeutics, Inc., priority 2018, dated 2021)

How the values were obtained:
human SCD1 = human SCD1 (Homo sapiens (Human), UniProt O00767); assay: Yeast growth assay, strain expressing human SCD1 as the sole desaturase (reduced growth as surrogate for SCD inhibition); format: cell-based; conditions: yeast with OLE1 deleted expressing human SCD1 from a plasmid; growth read as OD600 after 40 h at 30° C.; top drug concentration 33.3 μM
Summary of the method: (§1)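 Yeast lacking OLE1 depend on plasmid-borne human SCD1 or SCD5 and are tested in SD-Ura medium without oleic/palmitoleic acid or Tween.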

human SCD5 = human SCD5 (Homo sapiens (Human), UniProt Q86SK9); assay: Yeast growth assay, strain expressing human SCD5 as the sole desaturase (reduced growth as surrogate for SCD inhibition); format: cell-based; conditions: yeast with OLE1 deleted expressing human SCD5 from a plasmid; growth read as OD600 after 40 h at 30° C.; top drug concentration 33.3 μM
human SCD5, sequence (Q86SK9 whole entry): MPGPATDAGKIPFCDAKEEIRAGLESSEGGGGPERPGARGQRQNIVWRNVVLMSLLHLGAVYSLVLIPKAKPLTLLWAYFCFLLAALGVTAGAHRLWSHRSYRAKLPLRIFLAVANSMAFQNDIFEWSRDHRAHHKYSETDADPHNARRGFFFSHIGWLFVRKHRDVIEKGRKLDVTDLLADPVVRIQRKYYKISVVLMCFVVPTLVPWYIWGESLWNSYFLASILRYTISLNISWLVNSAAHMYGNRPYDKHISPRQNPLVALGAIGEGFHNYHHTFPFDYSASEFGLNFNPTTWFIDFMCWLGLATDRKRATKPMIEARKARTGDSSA
Summary of the method: as §1

human SCD1, sequence (O00767 whole entry): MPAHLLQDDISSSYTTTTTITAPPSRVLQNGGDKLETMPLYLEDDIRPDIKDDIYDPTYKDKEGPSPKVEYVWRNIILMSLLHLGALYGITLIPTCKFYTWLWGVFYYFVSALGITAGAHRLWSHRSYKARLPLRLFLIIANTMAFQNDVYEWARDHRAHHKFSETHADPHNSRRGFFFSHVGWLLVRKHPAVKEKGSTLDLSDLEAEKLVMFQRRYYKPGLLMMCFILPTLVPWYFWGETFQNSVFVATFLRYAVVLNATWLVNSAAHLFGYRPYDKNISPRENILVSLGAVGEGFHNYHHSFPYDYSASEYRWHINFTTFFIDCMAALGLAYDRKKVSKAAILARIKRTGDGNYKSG

| SMILES | IC50 (human SCD1) | IC50 (human SCD5) |
| --- | --- | --- |
| CC(C)c1cc(C(=O)N2CCC(c3ccccc3)C2)no1 (centres unmarked) [Compound 349] | > 45 µM | > 45 µM |
| O=C(Nc1cc(-c2ccco2)on1)c1cnn(Cc2ccc(Cl)c(Cl)c2)c1 [Compound 59] | > 45 µM | > 45 µM |
| O=C(c1cc(-c2cccnc2)on1)N1CCC[C@H]1c1ccccc1 [Compound 405] | 33.3 µM | > 45 µM |
| O=C(c1cc(-c2ccncc2)on1)N1CCC(c2ccccc2)CC1 [Compound 313, (4-phenylpiperidin-1-yl)(5-(pyridin-4-yl)isoxazol-3-yl)methanone, trifluoroacetic acid] | 0.41 µM | 1.54 µM |
| CC(C)(c1ccccc1)n1cc(NC(=O)c2cc(-c3ccccc3)on2)cn1 [Compound 64] | > 45 µM | > 45 µM |
| O=C(c1cnn(Cc2ccncc2)c1)c1cc(-c2ccccc2)on1 [Compound 138] | > 45 µM | > 45 µM |
| O=C(Nc1cnn(Cc2ccccc2)c1)c1cc(-c2ccncc2F)on1 [Compound 147, N-(1-benzyl-1H-pyrazol-4-yl)-5-(3-fluoropyridin-4-yl)isoxazole-3-carboxamide] | > 45 µM | 7.4 µM |
| O=C(Nc1cnn(Cc2cccc(F)c2)c1)c1cc(-c2ccon2)on1 [Compound 72] | 0.084 µM | > 45 µM |
| O=C(Nc1cnn(Cc2ccc(C(F)(F)F)cc2)c1)c1cc(-c2ccco2)on1 [Compound 16] | > 45 µM | > 45 µM |
| O=C(c1cc(-c2ccco2)on1)N1CC(Nc2ccccc2)C1 [Compound 210] | > 45 µM | > 45 µM |
| O=C(Nc1cnn(Cc2ccccc2)c1)c1cc(-c2ccccc2F)no1 [Compound 130] | > 45 µM | > 45 µM |

More lines, now with the values ahead:

| IC50 (human SCD1) | IC50 (human SCD5) | SMILES |
| --- | --- | --- |
| > 45 µM | 4.67 µM | O=C(c1cc(-c2ccc3c(c2)OCO3)on1)N1CCCC1Cc1ccccc1 (centres unmarked) [Compound 434] |
| > 45 µM | > 45 µM | N#Cc1cccnc1C1CCCN1C(=O)c1cc(-c2ccc3c(c2)OCO3)on1 (centres unmarked) [Compound 448] |
| > 45 µM | > 45 µM | O=C(c1cc(-c2ccc3c(c2)OCO3)on1)N1CCCC1c1cccnc1 (centres unmarked) [Compound 362] |
| > 45 µM | > 45 µM | COc1ccc(C2CCCN2C(=O)c2cc(-c3ccc4c(c3)OCO4)on2)nc1 (centres unmarked) [Compound 145] |
| > 45 µM | > 45 µM | Cn1nccc1C1CCCN1C(=O)c1cc(-c2ccc3c(c2)OCO3)on1 (centres unmarked) [Compound 417] |
| > 45 µM | > 45 µM | O=C(c1cc(-c2ccc3c(c2)OCO3)on1)N1C[C@@H](O)C[C@H]1c1ccccc1 [Compound 421] |
| > 45 µM | > 45 µM | O=C(c1cc(-c2ccc3c(c2)OCO3)on1)N1CCCC1c1ccc(F)cn1 (centres unmarked) [Compound 272] |
| > 45 µM | > 45 µM | COc1ccc(C2CCCN2C(=O)c2cc(-c3ccccc3)on2)cc1 (centres unmarked) [Compound 377] |
| 29.4 µM | > 45 µM | Cn1ccc(-c2cc(C(=O)N3CCC[C@H]3c3ccccc3)no2)cc1=O [Compound 428] |
| 6.22 µM | 2.92 µM | O=C(c1cc(-c2ccc3c(c2)OCO3)on1)N1CCC(Oc2ccccc2)CC1 [Compound 298, [5-(1,3-benzodioxol-5-yl)isoxazol-3-yl]-(4-phenoxy-1-piperidyl)methanone] |
| 4.52 µM | 1.62 µM | O=C(c1cc(-c2ccccc2)on1)N1CC(c2ccccc2)C1 [Compound 212, (3-phenylazetidin-1-yl)-(5-phenylisoxazol-3-yl)methanone] |
